{"source": "patent US7122360B1", "about": "“Polypeptides, polynucleotides and uses thereof” (University of Dundee, priority 1998, dated 2006)", "key": {"MAPKAP-K1a/b [1]": {"system": "MAPKAP-K1a/b", "test": "Activation of MAPKAP-K1a/b by TNF in HeLa cells", "format": "cell-based", "conditions": "50 μM PD 98059, 10 μM SB 203580", "source_text": "(§1) Cell Culture, stimulation and cell lysis."}, "MAPK": {"system": "MAPK", "conditions": "PC12 cells expressing high levels of the NGF receptor (Alessi et al., 1995); cited from earlier work"}, "MSK1 [2]": {"system": "MSK1", "test": "Activation of MSK1 by TNF in HeLa cells", "format": "cell-based", "conditions": "50 μM PD 98059, 10 μM SB 203580, TNF 10 ng/ml", "source_text": "as §1"}, "MAPKAP-K1 [3]": {"system": "MAPKAP-K1", "test": "Activation of MAPKAP-K1 in SK-N-MC cells", "format": "cell-based", "conditions": "50 μM PD 98059, 10 μM SB 203580", "description": "FIG. 14. […] After cell lysis aliquots were assayed for either MSK1 (A), MAPKAP-K1 (B), MAPKAP-K2 (C) after their immunoprecipitation from the lysates or immunoblotted for phosphorylation of CREB and ATF1 (D).\nas §1"}, "MSK1 [4]": {"system": "MSK1", "test": "Activation of transfected Flag-MSK1 in 293 cells", "format": "cell-based, human", "conditions": "for UV-induced activation of transfected MSK1 / activation of transfected MSK1 by TPA: 50 μM PD 98059 or 10 μM SB 203580", "description": "FIG. 6. Effect of mutation of MSK1 on activation by TPA and UV in 293 cells. 293 cells were transiently transfected with DNA constructs expressing Flag epitope tagged wild type MSK1, N-terminal (NT) “kinase dead” MSK1 and C-terminal (CT) “kinase dead” MSK1. […] The cells were lysed and the MSK1 was immunoprecipitated from the lysates and assayed with Crosstide.\nTransfection of MSK1 into 293 cells. 293 cells were cultured on 10 cm diameter dishes and transfected with the pCMV5 vector encoding the Flag epitope tagged MSK1 constructs using a modified calcium phosphate method (Alessi et al., 1996b). 24 h post-transfection, the cells were deprived of serum for 16 h, stimulated with TPA or exposed to UV radiation, the cells were then lysed in 1 ml of ice cold Buffer A, centrifuged at 13,000×g for 5 min, and the Flag tagged MSK1 protein immunoprecipitated from aliquots of lysate (containing 25 μg protein) using 2 μg of FLAG antibody coupled to 5 (1 of Protein G-Sepharose.\nImmunoprecipitates were incubated, washed and assayed for MSK1 activity as described above."}, "MSK1 [5]": {"biological_target": "MSK1 (Homo sapiens, UniProt O75582)", "sequence (O75582 whole entry, canonical isoform)": "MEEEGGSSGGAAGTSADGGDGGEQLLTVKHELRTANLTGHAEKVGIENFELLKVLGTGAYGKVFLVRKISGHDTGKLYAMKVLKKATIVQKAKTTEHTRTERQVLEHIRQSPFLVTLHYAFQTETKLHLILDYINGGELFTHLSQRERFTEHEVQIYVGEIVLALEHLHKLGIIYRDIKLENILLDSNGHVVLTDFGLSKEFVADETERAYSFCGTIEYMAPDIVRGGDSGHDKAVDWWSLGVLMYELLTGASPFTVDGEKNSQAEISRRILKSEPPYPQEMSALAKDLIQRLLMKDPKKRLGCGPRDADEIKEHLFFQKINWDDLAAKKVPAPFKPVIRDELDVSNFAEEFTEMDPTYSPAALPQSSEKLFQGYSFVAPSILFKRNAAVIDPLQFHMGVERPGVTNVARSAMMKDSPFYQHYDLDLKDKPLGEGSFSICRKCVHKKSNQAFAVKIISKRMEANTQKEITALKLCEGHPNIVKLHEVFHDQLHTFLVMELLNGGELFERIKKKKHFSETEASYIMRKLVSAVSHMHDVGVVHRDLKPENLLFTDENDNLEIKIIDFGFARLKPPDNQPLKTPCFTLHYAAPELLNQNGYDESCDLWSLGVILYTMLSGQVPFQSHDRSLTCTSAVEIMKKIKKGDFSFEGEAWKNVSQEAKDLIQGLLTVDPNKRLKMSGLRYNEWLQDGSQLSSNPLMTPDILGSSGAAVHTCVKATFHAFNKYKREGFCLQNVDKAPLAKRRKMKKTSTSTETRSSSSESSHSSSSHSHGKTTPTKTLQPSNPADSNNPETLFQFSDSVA", "test": "Effect of Ro 318220 on GST-MSK1 activity in vitro", "format": "biochemical", "conditions": "compared with PKC isoforms and MAPKAP-K1a/b"}, "[6]": {"biological_target": "cyclic AMP dependent protein kinase (Homo sapiens, UniProt P17612)", "conditions": "10 μM Ro 318220 (Davis et al., 1989); cited from earlier work"}, "MAPKAP-K2 [7]": {"biological_target": "T1, MAPKAP-K2 (Homo sapiens, UniProt P49137)", "T1 construct": "GST; made in house; host or cells: bacteria", "T1 sequence (P49137 46-400 limits assumed)": "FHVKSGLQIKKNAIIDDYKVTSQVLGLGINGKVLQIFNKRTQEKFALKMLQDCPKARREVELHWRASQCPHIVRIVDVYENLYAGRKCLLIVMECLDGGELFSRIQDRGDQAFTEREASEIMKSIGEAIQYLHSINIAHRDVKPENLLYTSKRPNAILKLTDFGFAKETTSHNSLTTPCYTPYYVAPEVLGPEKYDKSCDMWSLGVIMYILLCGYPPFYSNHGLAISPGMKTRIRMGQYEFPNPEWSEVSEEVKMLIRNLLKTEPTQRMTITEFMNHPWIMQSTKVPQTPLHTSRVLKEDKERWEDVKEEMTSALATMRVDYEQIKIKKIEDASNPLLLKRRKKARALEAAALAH", "test": "Effect of Ro 318220 on MAPKAP-K2 in vitro", "format": "biochemical", "conditions": "even at 10 μM", "description": "(§2) FIG. 9. Effect of Ro 318220 on the activity of MSK1. (A) Effect of Ro 318220 on GST-MSK1 (closed circles), mixed PKC isoforms (open circles) GST-MAPKAP-K1b and MAPKAP-K2 (open triangles) in vitro. […] The error for each point is ±10%. […] The cells were lysed MAPKAP-K2 was immunoprecipitated and assayed. […] (C) as above except that 293 cells were incubated for 2 h in 32phosphate (0.1 mCi/ml) before treatment with inhibitors. Cells were then exposed to either UV radiation (200 J/m2) or left untreated (−), incubated for a further 20 min in the continued presence of inhibitors. Following cell lysis, HSP27 was immunoprecipitated from cell extracts (Cuenda et al., 1995) run on a 15% polyacrylamide gel and autoradiographed."}, "MAPKAP-K1a/b [8]": {"biological_target": "T2, MAPKAP-K1a/b (Oryctolagus cuniculus, UniProt A0A5F9C4L9)", "T2 construct": "GST", "T2 sequence (A0A5F9C4L9 1-740)": "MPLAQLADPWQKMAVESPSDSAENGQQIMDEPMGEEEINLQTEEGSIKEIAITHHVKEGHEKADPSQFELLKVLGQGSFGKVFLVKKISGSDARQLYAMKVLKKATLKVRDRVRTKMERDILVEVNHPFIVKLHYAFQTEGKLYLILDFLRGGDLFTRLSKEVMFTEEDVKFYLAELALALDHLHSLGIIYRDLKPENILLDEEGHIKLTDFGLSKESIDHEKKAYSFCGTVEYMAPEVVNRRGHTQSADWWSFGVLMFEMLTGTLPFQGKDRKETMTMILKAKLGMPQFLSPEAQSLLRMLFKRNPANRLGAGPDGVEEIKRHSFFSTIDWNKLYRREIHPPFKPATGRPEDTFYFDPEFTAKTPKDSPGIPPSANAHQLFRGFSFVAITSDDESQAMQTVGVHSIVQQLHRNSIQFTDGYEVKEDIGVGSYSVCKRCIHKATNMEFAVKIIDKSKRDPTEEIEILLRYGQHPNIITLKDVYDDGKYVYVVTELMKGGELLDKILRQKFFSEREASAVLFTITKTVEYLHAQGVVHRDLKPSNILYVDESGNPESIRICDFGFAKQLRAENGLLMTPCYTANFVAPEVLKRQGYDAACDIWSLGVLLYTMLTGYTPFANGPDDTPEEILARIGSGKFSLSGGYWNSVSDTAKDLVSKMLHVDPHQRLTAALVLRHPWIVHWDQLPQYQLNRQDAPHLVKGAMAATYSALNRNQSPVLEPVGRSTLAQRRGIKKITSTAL", "test": "Effect of Ro 318220 on MAPKAP-K1a/b in vitro", "format": "biochemical", "conditions": "Alessi 1997, FIG. 9A", "description": "as §2"}, "MAPKAP-K2 [9]": {"system": "MAPKAP-K2", "test": "LPS-induced activation of MAPKAP-K2 in RAW 264 macrophages", "format": "cell-based, mouse", "conditions": "LPS 100 ng/ml 1 h, 10 μM SB 203580, 5 TM Ro 318220"}, "MAPKAP-K1 [10]": {"system": "MAPKAP-K1", "test": "LPS-induced activation of MAPKAP-K1 in RAW 264 macrophages", "format": "cell-based, mouse", "conditions": "LPS 100 ng/ml 1 h, 10 μM UO 126, 5 TM Ro 318220"}, "PKC isoforms": {"system": "PKC isoforms", "test": "Effect of Ro 318220 on mixed PKC isoforms in vitro", "format": "biochemical", "conditions": "Davis et al., 1989, Alessi 1997, FIG. 9A", "description": "as §2"}, "MAPKAP-K2 [11]": {"system": "MAPKAP-K2", "test": "Activation of MAPKAP-K2 in 293 cells", "format": "cell-based, human", "conditions": "50 μM PD 98059 or 10 μM SB 203580", "description": "as §2, §1"}}, "note": "“Also recorded” adds a separate entry of the source.", "data": [{"smiles": "COc1cccc(-c2cc(=O)c3ccccc3o2)c1N", "note": "[PD 98059]", "values": [{"measurement": "activation of MAPKAP-K1a/b after 15 min of TNF stimulation", "setting": "MAPKAP-K1a/b [1]", "value": "suppressed"}, {"measurement": "NGF-induced activation of MAPK", "setting": "MAPK", "value": "only partially suppresses"}, {"measurement": "activation of MSK1 by TNF after 5 min", "setting": "MSK1 [2]", "value": "unaffected"}, {"measurement": "activation of MSK1 by TNF after 15 min", "setting": "MSK1 [2]", "value": "partially blocked"}, {"measurement": "activation of MAPKAP-K1 by FGF", "setting": "MAPKAP-K1 [3]", "value": "abolished"}, {"measurement": "UV-induced activation of transfected MSK1", "setting": "MSK1 [4]", "value": "unaffected"}, {"measurement": "activation of transfected MSK1 by TPA", "setting": "MSK1 [4]", "value": "prevented"}, {"measurement": "activation of transfected wild type MSK1 by EGF, basic FGF and serum", "setting": "MSK1 [4]; data not shown", "value": "prevented"}]}, {"smiles": "Cn1cc(C2=C(c3cn(CCCSC(=N)N)c4ccccc34)C(=O)NC2=O)c2ccccc21", "note": "[Ro 318220]", "values": [{"measurement": "inhibition of MSK1 activity in vitro", "setting": "MSK1 [5]", "value": "equally potent inhibitor; also recorded: reversible inhibitor"}, {"measurement": "inhibition of cyclic AMP dependent protein kinase", "setting": "[6]", "value": "not significantly inhibited"}, {"measurement": "inhibition of MAPKAP-K2 in vitro", "setting": "MAPKAP-K2 [7]", "value": "does not significantly inhibit"}, {"measurement": "IC50", "setting": "MAPKAP-K1a/b [8]", "value": "10 to 30", "unit": "nM"}, {"measurement": "LPS-induced activation of MAPKAP-K2", "setting": "MAPKAP-K2 [9]", "value": "does not affect"}, {"measurement": "LPS-induced activation of MAPKAP-K1", "setting": "MAPKAP-K1 [10]", "value": "does not affect"}, {"measurement": "IC50", "setting": "PKC isoforms", "value": "10 to 30", "unit": "nM"}]}, {"smiles": "C[S+]([O-])c1ccc(-c2nc(-c3ccncc3)c(-c3ccc(F)cc3)[nH]2)cc1", "note": "(stereo not drawn) [SB 203580]", "values": [{"measurement": "LPS-induced activation of MAPKAP-K2", "setting": "MAPKAP-K2 [9]", "value": "completely block"}, {"measurement": "activation of MSK1 by TNF after 5 min", "setting": "MSK1 [2]", "value": "completely inhibited"}, {"measurement": "activation of MSK1 by TNF after 15 min", "setting": "MSK1 [2]", "value": "partially blocked"}, {"measurement": "activation of MAPKAP-K2 by stressful stimuli", "setting": "MAPKAP-K2 [11]", "value": "prevented"}, {"measurement": "UV-induced activation of transfected MSK1", "setting": "MSK1 [4]", "value": "prevented"}, {"measurement": "activation of transfected MSK1 by TPA", "setting": "MSK1 [4]", "value": "but not by SB 203580"}]}]}
